Test results published in patent US20120121540A1 (priority 2007, published 2012).

Experiment: HCV replicon assay (luciferase reporter, ET cell line)
Type: cell-based
Details: Hepatitis C virus, HCV replicon luciferase activity in ET cells
Outline: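 EC50 and, via WST-1 cytotoxicity, TC50 were fitted with a Hill-coefficient equation to % inhibition across 10 two-fold dilutions. Compounds at 0.1 nM-[…] with 0.5% DMSO were applied 24 h post-seeding to replicon-bearing ET cells (luc-ubi-neo/NS3-5B, adaptive mutations). Firefly luciferase signal was measured after 48-72 h.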

| SMILES | inhibition at 10 µM [%] |
| --- | --- |
| O=C(NCc1cccs1)c1nc2c(C(F)(F)F)cc(-c3cc[nH]c3)cn2c1Cl [Compound 279, 3-Chloro-6-(1H-pyrrol-3-yl)-8-trifluoromethyl-imidazo[1,2-a]pyridine-2-carboxylic Acid(thiophen-2-ylmethyl)-amide] | 95.8 |
| Cn1cc(-c2cc(C(F)(F)F)c3nc(C(=O)NCc4cccs4)c(Cl)n3c2)cn1 [Compound 280, 3-Chloro-6-(1-methyl-1H-pyrazol-4-yl)-8-trifluoromethyl-imidazo[1,2-a]pyridine-2-carboxylic Acid (thiophen-2-ylmethyl)-amide] | 83.9 |
| CC(C)(C)OC(=O)n1cccc1-c1cc(C(F)(F)F)c2nc(C(=O)NCc3cccs3)c(Cl)n2c1 [Compound 281, 2-{3-Chloro-2-[(thiophen-2-ylmethyl)-carbamoyl]-8-trifluoromethyl-imidazo[1,2-a]pyridin-6-yl}-pyrrole-1-carboxylic Acid Tert-butyl Ester] | 69.3 |
| O=C(NCc1cccs1)c1nc2c(C(F)(F)F)cc(C3=CCCCC3)cn2c1Cl [Compound 282, 3-Chloro-6-cyclohex-1-enyl-8-trifluoromethyl-imidazo[1,2-a]pyridine-2-carboxylic acid (thiophen-2-ylmethyl)-amide] | 97.6 |
| O=C(NCc1cccs1)c1nc2c(C(F)(F)F)cc(-c3ccn[nH]3)cn2c1Cl [Compound 283, 3-Chloro-6-(2H-pyrazol-3-yl)-8-trifluoromethyl-imidazo[1,2-a]pyridine-2-carboxylic Acid(thiophen-2-ylmethyl)-amide] | 87.5 |
| O=C(NCc1cccs1)c1nc2c(C(F)(F)F)cc(C3=CCCCO3)cn2c1Cl [Compound 284, 3-Chloro-6-(5,6-dihydro-4H-pyran-2-yl)-8-trifluoromethyl-imidazo[1,2-a]pyridine-2-carboxylic Acid (thiophen-2-ylmethyl)-amide] | 98.8 |
| O=C(NCc1cccs1)c1nc2c(C(F)(F)F)cc(-c3cnn(Cc4ccccc4)c3)cn2c1Cl [Compound 285, 6-(1-Benzyl-1H-pyrazol-4-yl)-3-chloro-8-trifluoromethyl-imidazo[1,2-a]pyridine-2-carboxylic Acid (thiophen-2-ylmethyl)-amide] | 71.8 |
| CN(C)c1cccc(-c2cc(C(F)(F)F)c3nc(C(=O)NCc4cccs4)c(Cl)n3c2)c1 [Compound 286, 3-Chloro-6-(3-dimethylamino-phenyl)-8-trifluoromethyl-imidazo[1,2-a]pyridine-2-carboxylic Acid (thiophen-2-ylmethyl)-amide] | 57.9 |
| O=C(NCc1cccs1)c1nc2c(C(F)(F)F)cc(/C=C/c3ccccc3)cn2c1Cl [Compound 287, 3-Chloro-6-styryl-8-trifluoromethyl-imidazo[1,2-a]pyridine-2-carboxylic Acid (thiophen-2-ylmethyl)-amide] | 52.3 |
| O=C(NCc1cccs1)c1nc2c(C(F)(F)F)cc(-c3cnoc3)cn2c1Cl [Compound 288, 3-Chloro-6-isoxazol-4-yl-8-trifluoromethyl-imidazo[1,2-a]pyridine-2-carboxylic Acid(thiophen-2-ylmethyl)-amide] | 85 |
| Cc1nc(C)c(-c2cc(C(F)(F)F)c3nc(C(=O)NCc4cccs4)c(Cl)n3c2)s1 [Compound 289, 3-Chloro-6-(2,4-dimethyl-thiazol-5-yl)-8-trifluoromethyl-imidazo[1,2-a]pyridine-2-carboxylic Acid (thiophen-2-ylmethyl)-amide] | 30.3 |
| O=C(NCc1cccs1)c1nc2c(C(F)(F)F)cc(-c3cn[nH]c3)cn2c1Cl [Compound 290, 3-Chloro-6-(1H-pyrazol-4-yl)-8-trifluoromethyl-imidazo[1,2-a]pyridine-2-carboxylic Acid(thiophen-2-ylmethyl)-amide] | 93.9 |
| O=C(NCc1cccs1)c1nc2c(C(F)(F)F)cc(-c3ccc[nH]3)cn2c1Cl [Compound 293, 3-Chloro-6-(1H-pyrrol-2-yl)-8-trifluoromethyl-imidazo[1,2-a]pyridine-2-carboxylic Acid(thiophen-2-ylmethyl)-amide] | 87.2 |
| O=C(NCc1cccs1)c1nc2c(C(F)(F)F)cc(C#Cc3ccccc3)cn2c1Cl [Compound 294, 3-Chloro-6-phenylethynyl-8-trifluoromethyl-imidazo[1,2-a]pyridine-2-carboxylic Acid(thiophen-2-ylmethyl)-amide] | 41.5 |
| C#Cc1cc(C(F)(F)F)c2nc(C(=O)NCc3cccs3)c(Cl)n2c1 [Compound 297, 3-Chloro-6-ethynyl-8-trifluoromethyl-imidazo[1,2-a]pyridine-2-carboxylic Acid (thiophen-2-ylmethyl)-amide] | 29.3 |
| O=C(NCc1cccs1)c1nc2c(C(F)(F)F)cc(-c3cccc(F)c3)cn2c1I [Compound 299, 6-(3-Fluoro-phenyl)-3-iodo-8-trifluoromethyl-imidazo[1,2-a]pyridine-2-carboxylic Acid(thiophen-2-ylmethyl)-amide] | 97.6 |
| C/C=C\c1c(C(=O)NCc2cccs2)nc2c(C(F)(F)F)cc(-c3cccc(F)c3)cn12 [Compound 300, 6-(3-Fluoro-phenyl)-3-propenyl-8-trifluoromethyl-imidazo[1,2-a]pyridine-2-carboxylic Acid(thiophen-2-ylmethyl)-amide] | 76.9 |
| O=C(NCc1cccs1)c1nc2c(C(F)(F)F)cc(-c3cccc(F)c3)cn2c1-c1cn[nH]c1 [Compound 301, 6-(3-Fluoro-phenyl)-3-(1H-pyrazol-4-yl)-8-trifluoromethyl-imidazo[1,2-a]pyridine-2-carboxylic Acid (thiophen-2-ylmethyl)-amide] | 79.9 |
| C=C(C)c1c(C(=O)NCc2cccs2)nc2c(C(F)(F)F)cc(-c3cccc(F)c3)cn12 [Compound 302, 6-(3-Fluoro-phenyl)-3-isopropenyl-8-trifluoromethyl-imidazo[1,2-a]pyridine-2-carboxylic Acid (thiophen-2-ylmethyl)-amide] | 69.5 |
| O=C(NCc1cccs1)c1nc2c(C(F)(F)F)cc(-c3cccc(F)c3)cn2c1C1=CCCCC1 [Compound 303, 3-Cyclohex-1-enyl-6-(3-fluoro-phenyl)-8-trifluoromethyl-imidazo[1,2-a]pyridine-2-carboxylic Acid (thiophen-2-ylmethyl)-amide] | 39.7 |
| O=C(NCc1cccs1)c1nc2c(C(F)(F)F)cc(-c3cccc(F)c3)cn2c1C#Cc1cccnc1 [Compound 305, 6-(3-Fluoro-phenyl)-3-pyridin-3-ylethynyl-8-trifluoromethyl-imidazo[1,2-a]pyridine-2-carboxylic Acid (thiophen-2-ylmethyl)-amide] | 59.5 |
| O=C(NCc1cccs1)c1nc2c(C(F)(F)F)cc(-c3cccc(F)c3)cn2c1C#CCCO [Compound 306, 6-(3-Fluoro-phenyl)-3-(4-hydroxy-but-1-ynyl)-8-trifluoromethyl-imidazo[1,2-a]pyridine-2-carboxylic Acid (thiophen-2-ylmethyl)-amide] | 62.5 |
| CC(C)(C)C#Cc1c(C(=O)NCc2cccs2)nc2c(C(F)(F)F)cc(-c3cccc(F)c3)cn12 [Compound 307, 3-(3,3-Dimethyl-but-1-ynyl)-6-(3-fluoro-phenyl)-8-trifluoromethyl-imidazo[1,2-a]pyridine-2-carboxylic Acid (thiophen-2-ylmethyl)-amide] | 33.5 |
